Columns and labels:
[1] = LNP size and polydispersity index (PDI) by dynamic light scattering; type: physicochemical; settings: LNP with cirRNA (SEQ ID NO: 1); for Size: in nm (unit assumed)
How it was run: (§1)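 Ribogreen fluorescence with and without Triton X-100 gave encapsulation as 100% − (intact/lysed) signal; DLS size, PDI and zeta potential measured on a Zetasizer. Particles: 50:10:38.5:1.5 lipid mix, luciferase circRNA or mRNA, lipid:nucleotide 15 or 6, microfluidic assembly at pH 4.5, PBS-dialyzed.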

[2] = LNP zeta potential (Zetasizer); type: physicochemical; settings: LNP with cirRNA (SEQ ID NO: 1)
How it was run: as §1

[3] = RNA encapsulation efficacy by Quant-IT Ribogreen kit; type: physicochemical; settings: LNP with cirRNA (SEQ ID NO: 1)
How it was run: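 LNPs of ionizable lipid/DSPC/cholesterol/DMG-PEG 2000 (50:10:38.5:1.5) made by microfluidic mixing of luciferase circRNA or mRNA in pH 4.5 acetate with lipids in ethanol (3:1, 12 ml/min), ionizable lipid:nucleotide 15 or 6, then dialyzed against PBS. Size, PDI (DLS) and zeta potential on Zetasizer; encapsulation by Ribogreen ± Triton X-100.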

[4] = test system: Hep G2 cells; experiment: In vitro expression of firefly-luciferase, Hep G2; type: cell-based; settings: cirRNA (SEQ ID NO: 1) LNPs; firefly-luciferase luminescence; Hep G2 cells
How it was run: (§2)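 Cells were transfected with firefly-luciferase-encoding RNA-LNPs at 100 ng/mL. After 72 hours they were washed and lysed, and luciferase activity in the lysates was read by luminometry.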

[5] = test system: RAW 264.7 cells; experiment: In vitro expression of firefly-luciferase, RAW 264.7; type: cell-based; settings: cirRNA (SEQ ID NO: 1) LNPs; firefly-luciferase luminescence; RAW 264.7 cells
How it was run: as §2

[6] = test system: Hep G2 cells; experiment: In vitro toxicity (CellTiter-Glo cell viability), Hep G2; type: cell-based; settings: cirRNA (SEQ ID NO: 1) LNPs; Hep G2 cells;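 note: percent of untreated cells luminescence signal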
How it was run: (§3)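 Viability after a 72 h incubation with 1 μg/mL RNA-LNP formulations was assessed luminometrically using CellTiter-Glo.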

[7] = test system: RAW 264.7 cells; experiment: In vitro toxicity (CellTiter-Glo cell viability), RAW 264.7; type: cell-based; settings: cirRNA (SEQ ID NO: 1) LNPs; RAW 264.7 cells;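 note: percent of untreated cells luminescence signal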
How it was run: as §3

[8] = test system: BALB/C mice; experiment: In vivo expression, whole-body luminescence (IVIS); settings: cirRNA (SEQ ID NO: 1) LNPs, BALB/C mice
Protocol: 6-8 week old, female BALB/C mice were injected with 0.05 mg*kg-1 of RNA-LNPs encoding for firefly-luciferase by intravenous injection. At 6 hours post injection, animals were intraperitoneally injected with 15 mg/ml of Luciferin substrate and whole-body luminescence was determined by a bioluminescent in vivo imaging system (IVIS).

Row | PDI [1] | Size [1] | Zeta (mV) [2] | Encapsulation Efficiency % [3] | SMILES | In vitro Expression HepG2 [4] | In vitro Expression RAW [5] | In vitro Viability HepG2 [6] | In vitro Viability RAW [7] | In vivo Expression (Whole Body) [8]
1 | 0.2722 | 87.32 | −0.06404 mV | 95% | CCCCCCCCC(CCCCCCCC)OC(=O)CCCCCCCN(CCCCCCCCOC(=O)C(CCCCCC)CCCCCCCC)CCNC(=O)OCCN(C)C (stereo not drawn) [Lipid 279] | 5.05E+06 | 1.62E+05 | 23% | 55% | 3.67E+07
2 | 0.1901 | 70.01 | −2.69 mV | 92% | CCCCCCCCC(CCCCCCCC)OC(=O)CCCCCCCN(CCCCCCCCOC(=O)C(CCCCCC)CCCCCCCC)CCCOC(=O)NCc1ncc[nH]1 (stereo not drawn) [Lipid 345] | 2.57E+06 | 2.20E+05 | 99% | 102% | 2.49E+06
3 | 0.264 | 111.1 | −0.00452 mV | 95% | CCCCCCCCC(CCCCCCCC)OC(=O)CCCCCCCN(CCCCCCCCOC(=O)C(CCCCCC)CCCCCCCC)CCCOC(=O)NCCCN(CC)CC (stereo not drawn) [Lipid 346] | 1.02E+06 | 1.46E+05 | 73% | 93% | 3.59E+06
4 | 0.2462 | 90.56 | −0.6677 mV | 94% | CCCCCCCCC(CCCCCCCC)OC(=O)CCCCCCCN(CCCCCCCCOC(=O)C(CCCCCC)CCCCCCCC)CCCOC(=O)NCCN1CCN(C)CC1 (stereo not drawn) [Lipid 347] | 1.04E+06 | 4.27E+04 | 92% | 96% | 7.61E+06

Continued, compound first:

Row | SMILES | PDI [1] | Size [1] | Zeta (mV) [2] | Encapsulation Efficiency % [3] | In vitro Expression HepG2 [4] | In vitro Expression RAW [5] | In vitro Viability HepG2 [6] | In vitro Viability RAW [7] | In vivo Expression (Whole Body) [8]
5 | CCCCC/C=C\C/C=C\CCCCCCCCN(CCCCCCCC(=O)OC(CCCCCCCC)CCCCCCCC)CCCOC(=O)NCCN1CCN(C)CC1 [Lipid 273] | 0.257 | 88.34 | 1.543 mV | 95% | 6.48E+06 | 1.35E+06 | 93% | 121% | 5.16E+06
6 | CCCCC/C=C\C/C=C\CCCCCCCCN(CCCCCCCC(=O)OC(CCCCCCCC)CCCCCCCC)CCCOC(=O)NCCN1CCOCC1 [Lipid 274] | 0.112 | 50.6 | −2.714 mV | 94% | 4.11E+06 | 4.30E+05 | 97% | 127% | 2.06E+07
7 | CCCCC/C=C\C/C=C\CCCCCCCCN(CCCCCCCC(=O)OC(CCCCCCCC)CCCCCCCC)CCCOC(=O)NCCCN(C)C [Lipid 275] | 0.2727 | 60 | 6.337 mV | 95% | 7.54E+06 | 4.30E+05 | 102% | 129% | 3.66E+06
8 | CCCCC/C=C\C/C=C\CCCCCCCCN(CCCCCCCC(=O)OC(CCCCCCCC)CCCCCCCC)CCCOC(=O)NCCN1CCCC1 [Lipid 277] | 0.2188 | 76.75 | −0.6853 mV | 92% | 1.17E+07 | 8.13E+06 | 89% | 121% | 7.29E+07
